From US11309064B2, “Individualized dosing technique with multiple variables” (priority 2017, dated 2022)

Tests used:
plasma proteins = details: cited from earlier work
blood glucose = experiment: Software readout, predicted blood glucose for an insulin dose (Example 6); set-up: species or system patient; details: 100 units Subcutaneous every 24 hrs
Text: A diabetes patient tells the health care provider their average daily blood glucose value. A health care provider can do this over a phone or via the Internet. A physical exam, review of biological systems, and medicine reconciliation is done and the information is put into software program. Then, for example, the software may have readout of “Given the data collected, the dose of 100 units of insulin Subcutaneous every 24 hrs will result in blood glucose of between 90-150 with a 50%-90% possibility if compliant with medications and no other variables change.”

INR [1] = experiment: INR lab value at clinic visits under Warfarin (Example 4); assay type: in vivo, patient
INR [2] = experiment: Software readout, predicted INR for a Warfarin dose (Example 5); set-up: species or system patient; details: 5 mg by mouth every 24 hours
Text: The nurse takes their INR lab value and enters it into a software program. The health care provider has the software open on a computer or a hand held device. Then the provider asks the patient the relevant questions, does a physical exam and inputs this into the electronic form.

[3] = test system: patients with nonvalvular AF; details: long-term anticoagulation therapy; cited from earlier work
INR [4] = experiment: INR and individual INR/Warfarin dose equation (Examples 7 and 8)

Compound: COc1cc([C@@H]2c3cc4c(cc3[C@@H](O[C@@H]3O[C@@H]5CO[C@@H](C)O[C@H]5[C@H](O)[C@H]3O)[C@H]3COC(=O)[C@H]23)OCO4)cc(OC)c1O [etoposide]
- protein binding (plasma proteins): Highly protein bound. Interacts with other protein-bound drugs

Compound: insulin
- predicted blood glucose (blood glucose): 90-150

Compound: CC(=O)CC(c1ccccc1)c1c(O)c2ccccc2oc1=O (racemic) [Warfarin]
- INR (INR [1]; 1 month later on 5 mg Warfarin, Lasix 40 mg every 24 hours, over 3 glasses of wine last evening): 4.3
- INR (INR [1]; 1 week on 7 mg Warfarin by mouth everyday, with HCTZ 25 mg, Doxycycline 100 mg every 12 hours, some aspirin): 3.4
- INR (INR [1]; 2 weeks after restart at 5 mg Warfarin, Lasix 60 mg a day, 73 kg, antidepressant): 2.3
- INR (INR [1]; 2 weeks on 5 mg Warfarin every day, HCTZ 25 mg only): 2.5
- predicted INR (INR [2]): 2-3
- reduction of the risk for ischemic stroke [3]: approximately 68%
- INR (INR [4]; Lasix 30 mg/day and Warfarin 7.5 mg/day): ~3
- INR (INR [4]; Warfarin 7.5 mg, 1 week after start of amoxicillin 500 mg / clavulanate 250 mg 3 times a day): 2.5
- INR (INR [4]; Warfarin 7.5 mg, next office visit after amoxicillin/clavulanate): 6
- INR (INR [4]; a week later again): 9
- observed INR (INR [4]; after Lasix increased to 60 mg/day, Warfarin dose from earlier formula): 4-5
- INR (INR [4]; after Warfarin stopped, blood transfusion and a dose of Vitamin K): 3.5

Compound: CC/C(=C(\c1ccccc1)c1ccc(OCCN(C)C)cc1)c1ccccc1 [Tamoxifen]
- protein binding (plasma proteins): Tamoxifen and Warfarin are highly protein bound. Tamoxifen

Compound: CC(=O)O[C@H]1C(=O)[C@@]2(C)[C@H]([C@H](OC(=O)c3ccccc3)[C@]3(O)C[C@H](OC(=O)[C@H](O)[C@@H](NC(=O)c4ccccc4)c4ccccc4)C(C)=C1C3(C)C)[C@]1(OC(C)=O)CO[C@@H]1C[C@@H]2O [paclitaxel]
- protein binding (plasma proteins): Highly protein bound. Interacts with other protein-bound drugs
